pIC50: −log10 of the molar value.
Legend:
MT4 [1] = test: Cytotoxic concentration that reduces the MT-4 cell viability by 50%; type: functional; settings: Homo sapiens
MT4 [2] = test: Concentration required to protect the cell against HIV-2 strain ROD viral cytopathogenicity by 50% in MT-4 cells; type: functional, cell-based, Human immunodeficiency virus 2; settings: Homo sapiens
MT4 [3] = test: Concentration required to protect the cell against HIV-2 strain ROD viral cytopathogenicity by 50% in MT-4 cells; NA denotes not active; type: functional, cell-based, Homo sapiens
MT4 [4] = test: Concentration required to protect the cell against SO561945 viral cytopathogenicity by 50% in MT-4 cells; type: functional, cell-based; settings: Homo sapiens

## COC(=O)CSc1nc(O)c(C)c(Cc2cccc3ccccc23)n1
MT4 [1]
  CC50: ≥ 296 µM
MT4 [2]
  pIC50: ≤ 3.53

## COc1ccc(C(=O)CSc2nc(Cc3cccc4ccccc34)c(C(C)C)c(=O)[nH]2)cc1
MT4 [1]
  CC50: ≥ 203 µM
MT4 [2]
  pIC50: 4.87

## O=c1[nH]cnc2c1ncn2[C@H]1CC[C@@H](CO)O1 [DIDANOSINE]
MT4 [1]
  CC50: ≥ 529 µM
MT4 [2]
  pIC50: 5.57

## CCc1c(O)nc(SCC(=O)c2ccc(OC)cc2)nc1Cc1cccc2ccccc12
MT4 [1]
  CC50: 178 µM
MT4 [2]
  pIC50: ≤ 4.72

## CC(C)c1c(O)nc(SCC(=O)c2ccc(F)cc2)nc1Cc1cccc2ccccc12
MT4 [1]
  CC50: 186 µM
MT4 [2]
  pIC50: ≤ 4.49

## Cc1ccc(C(=O)CSc2nc(O)c(C(C)C)c(Cc3cccc4ccccc34)n2)cc1
MT4 [1]
  CC50: 225 µM
MT4 [2]
  pIC50: ≤ 3.65

## CCc1c(O)nc(SCC(=O)c2ccc(F)cc2)nc1Cc1cccc2ccccc12
MT4 [1]
  CC50: ≥ 240 µM
MT4 [2]
  pIC50: 4.79

## CCc1c(O)nc(SCC(=O)c2ccc(C)cc2)nc1Cc1cccc2ccccc12
MT4 [1]
  CC50: 6 µM
MT4 [2]
  pIC50: ≤ 5.90

## CCc1c(O)nc(SCC(=O)OC)nc1Cc1cccc2ccccc12
MT4 [1]
  CC50: ≥ 196 µM
MT4 [2]
  pIC50: ≤ 3.71

## CCOC(=O)CSc1nc(O)c(C)c(Cc2cccc3ccccc23)n1
MT4 [1]
  CC50: ≥ 287 µM
MT4 [2]
  pIC50: ≤ 3.53

## Cc1c(Sc2ccccc2)n(COCCO)c(=O)[nH]c1=O [HEPT]
MT4 [3]
  IC50: Not Active
MT4 [1]
  CC50: 405 µM

## CCOC(=O)CSc1nc(O)c(C(C)C)c(Cc2cccc3ccccc23)n1
MT4 [1]
  CC50: 175 µM
MT4 [2]
  pIC50: ≤ 4.39

## O=C1Nc2ccc(Cl)cc2[C@@](C#CC2CC2)(C(F)(F)F)O1 [EFAVIRENZ]
MT4 [3]
  IC50: Not Active
MT4 [1]
  CC50: 80 µM

## Cc1c(O)nc(SCC(=O)c2ccc(Cl)cc2)nc1Cc1cccc2ccccc12
MT4 [1]
  CC50: ≥ 198 µM
MT4 [2]
  pIC50: 4.70

## Cc1ccnc2c1NC(=O)c1cccnc1N2C1CC1 [NEVIRAPINE]
MT4 [3]
  IC50: Not Active
MT4 [1]
  CC50: > 200 µM

## CC(C)c1c(O)nc(SCC(=O)c2ccccc2)nc1Cc1cccc2ccccc12
MT4 [1]
  CC50: 238 µM
MT4 [2]
  pIC50: 4.66

## COc1ccc(C(=O)CSc2nc(O)c(C)c(Cc3cccc4ccccc34)n2)cc1
MT4 [1]
  CC50: > 290 µM
MT4 [2]
  pIC50: ≤ 6.38

## Cc1ccc(C(=O)CSc2nc(O)c(C(C)C)c(Cc3cccc4ccccc34)n2)c(C)c1
MT4 [1]
  CC50: 27 µM
MT4 [2]
  pIC50: 5.40

## CCc1c(O)nc(SCC(=O)c2ccc(Cl)cc2)nc1Cc1cccc2ccccc12
MT4 [1]
  CC50: 56 µM
MT4 [2]
  pIC50: ≤ 6.59

## Cc1c(O)nc(SCC(=O)c2ccc(F)cc2)nc1Cc1cccc2ccccc12
MT4 [1]
  CC50: ≥ 275 µM
MT4 [2]
  pIC50: ≤ 3.56

## CC(=O)CSc1nc(O)c(C)c(Cc2cccc3ccccc23)n1
MT4 [1]
  CC50: 85 µM
MT4 [2]
  pIC50: ≤ 4.07

## COC(=O)CSc1nc(O)c(C(C)C)c(Cc2cccc3ccccc23)n1
MT4 [1]
  CC50: 179 µM
MT4 [2]
  pIC50: < 3.75

## CC(=O)CSc1nc(O)c(C(C)C)c(Cc2cccc3ccccc23)n1
MT4 [1]
  CC50: 43 µM
MT4 [2]
  pIC50: < 4.37

## CC(C)c1c(O)nc(SCC(=O)c2ccc(Cl)cc2)nc1Cc1cccc2ccccc12
MT4 [1]
  CC50: > 270 µM
MT4 [2]
  pIC50: < 3.57

## Cc1ccc(C(=O)CSc2nc(O)c(C)c(Cc3cccc4ccccc34)n2)cc1
MT4 [4]
  pIC50: ≤ 3.60
MT4 [1]
  CC50: ≥ 251 µM
MT4 [2]
  pIC50: ≤ 4.87

Reference: ChEMBL document CHEMBL1146642, “5-Alkyl-2-[(aryl and alkyloxylcarbonylmethyl)thio]-6-(1-naphthylmethyl) pyrimidin-4(3H)-ones as an unique HIV reverse transcriptase inhibitors of S-DABO series” (Bioorg Med Chem Lett, 2004)
